In patent US20260183283A1 (priority 2022, published 2026):
Like-named read-outs stand apart in the source and are kept apart here.

Columns and labels:
[1] = dog, in vivo
[2] = 22.5 ppm (3 mg/kg) in chow for 30 days after weaning
Description: The mice were maintained at 72′±2° F., humidity 50%±10% and a 14-hour light/10-hour dark cycle with the dark cycle starting at 20:00 hrs. Water was supplied ad libitum. The mice were randomized into the treatment arms to achieve a normal weight distribution. […] However, this is merely an approximation, as Pcca^−/−PCCA(A138T)^tg/0 mice weigh less but also eat less than wild-type mice. […] Blood was collected in ethylenediaminetetraacetic acid (EDTA) at P50 by cardiac puncture from isoflurane-anesthetized animals, plasma was prepared and stored frozen at −80° C. until analysis. Liver, brain, and heart were quickly excised, immediately flash frozen in liquid nitrogen and stored frozen at −80° C. until analysis.
The samples were incubated on ice for 30 min. Samples were spun at 3500×g for 10 min to pellet debris, and the supernatant was transferred to a glass vial. […] 30 mg of tissue was homogenized in 2 mL of 80% methanol containing 0.1 μM warfarin and incubated at −80° C. for 4 hr. Samples were spun at 3500×g for 10 min to pellet debris, supernatant was transferred to a glass tube and dried down using a Savant SPD1010 Speed-Vac (Thermo Scientific) overnight. Samples were resuspended in 400 μL of 80% acetonitrile to a final concentration of 0.5 μM and transferred to a glass vial. […]

[3] = 60 mg, fed vs fasted
Description: All subjects will receive 2 doses of study drug in a crossover manner, separated by a washout period of 7 days or 5 half-lives up to 21 days (whichever is longer).
Study drug will then be administered along with a standardized high-calorie (approximately 800 to 1000 calories) breakfast. The meal will be ingested entirely within 30 minutes, and study drug will be administered 30 minutes after the start of the meal.

[4] = rat, in vivo
in vivo [5] = settings: rat
clinical = settings: for half-life / AUC / Cmax / Tmax: human, plasma; for AUC: AUCtau; for AUC / Cmax: arithmetic mean
Description: Following the screening period, eligible subjects will be admitted to the clinical unit on Day 1. All subjects will receive the study drug for 7 days starting on Day 1. […] Dosing frequency and any instructions regarding meal intake will depend on data from the SAD cohorts and will be provided in a separate document. The dosing duration may be increased to up to 14 days to allow for achievement of 3 half-lives. […] Subjects will return for an EOS visit on Day 15 or up to approximately 5 half-lives up to a maximum of Day 42 (whichever is longer).
The tentative starting dose for this portion of the study will be 30 mg daily. Dose escalation for Cohort 2 and beyond will be based on the safety, tolerability, and PK of the previous cohort. […] Planned doses for subsequent cohorts are 60, 120, 200, and 300 mg daily; the maximum dose increment between cohorts will be no more than 2 times the previous dose.

[6] = test system: Pank1,2 neural knockout mice; experiment: Survival of Pank1,2 neural knockout mice; type: in vivo; settings: 75 ppm in chow from postnatal day 14; untreated ~50%
Description: Water was supplied ad libitum. Mice were maintained on a chow diet with purified ingredients containing 19% kcal protein, 66.5% kcal carbohydrate and 14.4% kcal fat (Envigo #TD170542) which was similar to standard rodent chow (LabDiet #5013). The mice were randomized into the treatment arms. […] However, this is an approximation, as SynCre^+Pank1^−/−Pank2^−/− mice both weigh less and eat less than wild-type mice. […] At the end of the dark cycle, individual mice were placed in an open rectangular arena (36.8 cm×43.2 cm) for 5 min during the light cycle and motor activity was evaluated using a video tracking system provided by HVS Image with associated 2100 Plus software (San Diego, CA, USA). Each animal was placed in the center of the arena under standard overhead lighting and the total distance traveled and the percentage of time in motion were recorded. The behaviors of age-matched control animals, treated with Compound (I) and untreated, were quantified and compared. […] Liver, forebrain and hindbrain were quickly excised, approximately 30-50 mg pieces were immediately flash frozen in liquid N2 and stored frozen at −80° C. until analysis. The plasma and tissue samples were used for Compound (I) and total CoA determinations.
Following analysis of movement, all animals were sacrificed at postnatal Day 45 for examination of tissue CoA levels.

[7] = test system: Pank1,2 neural knockout mice; experiment: Open field test in Pank1,2 neural knockout mice; type: in vivo; settings: 22.5 ppm in chow from postnatal day 14; postnatal day 45
Description: The mice were maintained at 72°±2° F., humidity 50%±10% and a 14-hour light/10-hour dark cycle with the dark cycle starting at 20:00 hrs. Water was supplied ad libitum. […] The mice were randomized into the treatment arms. […] Each animal was placed in the center of the arena under standard overhead lighting and the total distance traveled and the percentage of time in motion were recorded.

[8] = test system: Pcca^−/−PCCA(A138T)^tg/0 mice; experiment: Total CoA in liver and brain of Pcca−/−PCCA(A138T)tg/0 mice; type: in vivo; settings: 22.5 ppm (3 mg/kg) in chow for 30 days after weaning
Description: Water was supplied ad libitum.

in vivo [9] = settings: mouse, rat, dog, monkey, iv
[10] = test system: SynCre^+Pank1^−/−Pank2^−/− mice; experiment: Neurometabolites by 1H MRS in SynCre+Pank1−/−Pank2−/− mice; type: in vivo; settings: 10 mg/kg/day (75 ppm) in chow; midbrain 1H MRS at P45; normalized to total creatine; mean ± SD
Description: The ^1H MRS studies were performed on a Bruker Clinscan 7T magnetic resonance imaging (MRI) scanner (Bruker BioSpin MRI GmbH, Ettlingen, Germany). Mice were anesthetized using isoflurane mixed with oxygen (1-2%) and the respiration rate was monitored. Each MRI was acquired with a mouse brain surface receive coil positioned over the mouse head and placed inside a 72 mm transmit/receive coil. After the localizer, a T2-weighted turbo spin echo sequence was performed in the coronal (TR/TE=2290/41 ms, matrix size=192×256, slice thickness 0.5 mm, number of slices=14) and axial (TR/TE=3841/50 ms, matrix size=192×144, slice thickness 0.4 mm, number of slices=42) orientations. The T2-weighted scans were used to position a 3.5×4.5×2.0 mm^3 voxel for spectroscopy in the midbrain to cover thalamus and hippocampus. […] The in vivo ^1H MRS data were quantified as the Metabolite to tCr ratio using LCModel software (v.6.3), a widely applied MRS analysis tool that employs a least-squares-based prior-knowledge fitting program. The concentration of metabolites was measured using the unsuppressed water peak as a concentration standard. […]
Data analysis: Statistical significance (p values) was determined using a two-tailed Student's t test using GraphPad software. The MRS parameters were analyzed using ‘R’ 4.0.2 and the mean values and standard deviations were calculated for each group of mice. […]

O=C(Cc1ccc(C2CC2)c(F)c1)N1CCN(c2ccc(Cl)nn2)CC1 [Compound (I), 1-(4-(6-chloropyridazin-3-yl)piperazin-1-yl)-2-(4-cyclopropyl-3-fluorophenyl)ethan-1-one]
Accumulation after multiple doses [1]: Less than 2 fold | Distribution of Compound (I) into liver, brain and heart [2]: well distributed into the liver, and to a lesser extent in brain and heart | Exposure in female mice versus males [2]: higher exposures than males | Delay of absorption by food [3]: ~2 h | Increase in plasma exposure with food [3]: ~1.3 fold | Accumulation after multiple doses [4]: Less than 2 fold | Exposures in male rats versus female rats at the same doses [4]: lower exposures than female rats | clearance (in vivo [5]; iv): 32.6 mL/min/kg | bioavailability (in vivo [5]; po): 35.2% | Urinary excretion of Compound (I) (clinical; healthy subjects): negligible | half-life (clinical; oral): 360 to 480 min | half-life (clinical; oral, 30 mg): 453 min | AUC (clinical; oral, 30 mg, 30 mg QD, Day 1, AUC0-24): 476 ng·h/mL | AUC (clinical; oral, 30 mg, 30 mg QD, Day 7, AUC0-24): 913 ng·h/mL | Cmax (clinical; oral, 30 mg, 30 mg QD, Day 1): 98.3 ng/mL | Cmax (clinical; oral, 30 mg, 30 mg QD, Day 7): 158 ng/mL | Tmax (clinical; oral, 30 mg, Tmax, 30 mg QD, Day 1, median): 1.5 h | Tmax (clinical; oral, 30 mg, Tmax, 30 mg QD, Day 7, median): 1.5 h | AUC (clinical; oral, 50 mg, 50 mg Q12H, Day 1, AUC0-12): 925 ng·h/mL | Cmax (clinical; oral, 50 mg, 50 mg Q12H, Day 1): 155 ng/mL | Tmax (clinical; oral, 50 mg, Tmax, 50 mg Q12H, Day 1, median): 1.5 h | half-life (clinical; oral, 60 mg): 402 min | AUC (clinical; oral, 60 mg, 60 mg QD, Day 1, AUC0-24): 1670 ng·h/mL | AUC (clinical; oral, 60 mg, 60 mg QD, Day 7, AUC0-24): 4050 ng·h/mL | Cmax (clinical; oral, 60 mg, 60 mg QD, Day 1): 240 ng/mL | Cmax (clinical; oral, 60 mg, 60 mg QD, Day 7): 505 ng/mL | Tmax (clinical; oral, 60 mg, Tmax, 60 mg QD, Day 1, median): 1.75 h | Tmax (clinical; oral, 60 mg, Tmax, 60 mg QD, Day 7, median): 2.01 h | half-life (clinical; oral, 70 mg): 410 min | AUC (clinical; oral, 70 mg, 70 mg QD, Day 7, AUC0-24): 2950 ng·h/mL | Cmax (clinical; oral, 70 mg, 70 mg QD, Day 1): 205 ng/mL | Cmax (clinical; oral, 70 mg, 70 mg QD, Day 7): 400 ng/mL | Tmax (clinical; oral, 70 mg, Tmax, 70 mg QD, Day 1, median): 1.5 h | Tmax (clinical; oral, 70 mg, Tmax, 70 mg QD, Day 7, median): 1.5 h | Tmax (clinical; po, Tmax after oral administration, healthy subjects, over cohorts): 1 to 2 h | Increase in exposure with dose (clinical; total daily dose increased from 30 mg to 100 mg): more than dose-proportional | Probability of survival at postnatal Day 45 [6]: −70% | Movement in open field [7]: some improvement in movement | Increase of brain total CoA compared to untreated mice ([8]; brain): ~44% | Increase of liver total CoA compared to untreated mice ([8]; liver): ~45% | half-life (in vivo [9]): 60 to 180 min | GABA (GABA/tCr) [10]: 0.40 ± 0.02
